# Where two headings read alike, the source gives them in different places.
# Tests used:
# [1] = biological target: T1, PBP3 from Acinetobacter baumannii (ATCC 19606) (Acinetobacter baumannii, UniProt A0ABX6CK25); assay: Bocillin-FL fluorescence polarization competition binding, A. baumannii PBP3; settings: fluorescence polarization competition binding assay using Bocillin-FL; read-out: A. baumannii PBP3 Potency
# T1 sequence (A0ABX6CK25 64-610): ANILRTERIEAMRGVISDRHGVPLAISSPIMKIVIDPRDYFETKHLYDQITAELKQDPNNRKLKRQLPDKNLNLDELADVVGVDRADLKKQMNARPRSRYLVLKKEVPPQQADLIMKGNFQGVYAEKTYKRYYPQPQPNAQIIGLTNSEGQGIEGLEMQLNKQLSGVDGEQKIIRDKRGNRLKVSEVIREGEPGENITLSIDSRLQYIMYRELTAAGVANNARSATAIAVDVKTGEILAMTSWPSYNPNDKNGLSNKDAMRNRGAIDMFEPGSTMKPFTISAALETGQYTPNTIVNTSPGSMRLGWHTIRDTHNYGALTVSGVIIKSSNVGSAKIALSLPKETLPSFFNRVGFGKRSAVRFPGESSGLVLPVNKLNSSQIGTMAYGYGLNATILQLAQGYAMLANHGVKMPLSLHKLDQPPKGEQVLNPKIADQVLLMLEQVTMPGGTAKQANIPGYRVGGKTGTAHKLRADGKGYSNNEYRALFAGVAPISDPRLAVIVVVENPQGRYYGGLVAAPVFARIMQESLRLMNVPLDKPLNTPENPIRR
# How it was run: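 Purified PBP was preincubated with inhibitor (E. coli PBP3 1.5 μM, 30 min; P. aeruginosa PBP3 0.75 μM, A. baumannii PBP3 0.2 μM and PBP1a 1 μM, 15 min), then Bocillin-FL (0.1 μM; 0.05 μM for PBP1a) added and FP read up to 60 min. EC50 = 50% loss of bound probe.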
# [2] = tested on: A. baumannii ATCC 17978; assay: microbe, parasite or virus in culture; assay type: cell-based; settings: Acinetobacter baumannii, ATCC17978, read-out: MIC, A. baumannii ATCC 17978
# [3] = tested on: A. baumannii ATCC 19606; assay: microbe, parasite or virus in culture; assay type: cell-based; settings: Acinetobacter baumannii, ATCC19606, read-out: MIC, A. baumannii ATCC 19606
# [4] = tested on: P. aeruginosa ATCC 35151; assay: microbe, parasite or virus in culture; assay type: cell-based; settings: Pseudomonas aeruginosa, ATCC35151, read-out: Minimum inhibitory concentration, P. aeruginosa ATCC 35151
# [5] = tested on: B. humptydooensis ATCC BAA-2767; assay: microbe, parasite or virus in culture; assay type: cell-based; settings: Burkholderia humptydooensis, ATCCBAA2767, read-out: Minimum inhibitory concentration (MIC), B. humptydooensis ATCC BAA-2767
# [6] = tested on: N. gonorrhoeae WHO M; assay: Liquid broth MIC in Fastidious broth; settings: Neisseria gonorrhoeae
# Experimental: Liquid broth-based assays were used for antibacterial testing of PBP inhibitors in Neisseria gonorrhoeae. Briefly, cryo-preserved bacterial cultures of clinical strains were streaked for isolation on Chocolate Agar (72 g/L (2×) GC Agar Base (BD #228950) and 2% (2×) Hemoglobin was autoclaved at 121° C. for 20 minutes to sterilize. Once cooled to ˜50° C. the 2×GC Agar Base and 2× Hemoglobin solutions are combined and 1% IsoVitaleX Enrichment (BD #211876) was added to the solution). Strains were incubated at 36° C. and 5% CO2 to allow growth of colonies, 24 hours before inoculum preparation. 2-fold serial dilutions of test compounds were conducted in a 96 well plate with a final volume of 75 μL per well at 2-fold the final desired concentration in Fastidious broth (Remel #R07664). For preparation of assay inoculum, a direct suspension was prepared by aseptically swabbing 10-15 colonies from agar plates into culture tubes containing 2 mL of fresh sterile saline. After the dilution plates were set up, direct suspensions were then diluted in a cuvette containing sterile saline and the optical density was measured at 600 nm. Inocula were diluted such that 75 μL of this culture in Fastidious broth results in a starting bacterial concentration of 5×10^5 CFU/mL when added to the dilution plates. The plates were incubated for ˜24 hours at 36° C. and 5% CO2.
# [7] = read-out: Minimum Inhibitory Concentration (MIC), N. gonorrhoeae WHO M
# [8] = read-out: Minimum Inhibitory Concentration, WHO M
Structure (SMILES),IC50 [1] [µM],MIC [2] [µg/mL],MIC [3] [µg/mL],MIC [4] [µg/mL],MIC [5] [µg/mL],"MIC [6, 7] [µg/mL]","MIC [6, 8] [µg/mL]"
"CS(=O)(=O)N1CCN(C(=O)N[C@@H](C(=O)N[C@H]2Cc3cccc(C(=O)O)c3OB2O)c2ccc(P(=O)(O)O)cc2)C1=O (single isomer, unassigned) [Example 6]",< 10,2 to 4,8 to 16,2 to 4,2 to 4,< 1,
"O=C(O)c1cccc2c1OB(O)[C@@H](NC(=O)C(NC(=O)N1CCN(CC(F)(F)F)C(=O)C1=O)c1ccc(P(=O)(O)O)cc1)C2 (stereo partly drawn) [Example 4, (3R)-3-(2-(2,3-dioxo-4-(2,2,2-trifluoroethyl)piperazine-1-carboxamido)-2-(4-phosphonophenyl)acetamido)-2-hydroxy-3,4-dihydro-2H-benzo[e][1,2]oxaborinine-8-carboxylic acid]",,,,,,< 1,
"O=C(NCCCS(=O)(=O)N1CCN(C(=O)NC(C(=O)N[C@H]2Cc3ccc(F)c(C(=O)O)c3OB2O)c2cc(F)c(O)c(O)c2Cl)C1=O)Nc1cccc(O)c1 (stereo partly drawn) [Example 277, (3R)-3-(2-(2-chloro-5-fluoro-3,4-dihydroxyphenyl)-2-(3-((3-(3-(3-hydroxyphenyl)ureido)propyl)sulfonyl)-2-oxoimidazolidine-1-carboxamido)acetamido)-7-fluoro-2-hydroxy-3,4-dihydro-2H-benzo[e][1,2]oxaborinine-8-carboxylic acid]",< 10,< 1,< 1,< 1,> 128,,16 to 32
"O=C(NCCCS(=O)(=O)N1CCN(C(=O)NC(C(=O)N[C@H]2Cc3ccc(F)c(C(=O)O)c3OB2O)c2cc(F)c(O)c(O)c2Cl)C1=O)Nc1cccnc1 (stereo partly drawn) [Example 278, (3R)-3-(2-(2-chloro-5-fluoro-3,4-dihydroxyphenyl)-2-(2-oxo-3-((3-(3-(pyridin-3-yl)ureido)propyl)sulfonyl)imidazolidine-1-carboxamido)acetamido)-7-fluoro-2-hydroxy-3,4-dihydro-2H-benzo[e][1,2]oxaborinine-8-carboxylic acid]",< 10,< 1,< 1,< 1,2 to 4,,16 to 32
"O=C(NCCN1CCN(C(=O)N[C@@H](C(=O)N[C@H]2Cc3ccc(F)c(C(=O)O)c3OB2O)c2cc(F)c(O)c(O)c2Cl)C1=O)Nc1ccc(O)cc1 [Example 279, (R)-3-((R)-2-(2-chloro-5-fluoro-3,4-dihydroxyphenyl)-2-(3-(2-(3-(4-hydroxyphenyl)ureido)ethyl)-2-oxoimidazolidine-1-carboxamido)acetamido)-7-fluoro-2-hydroxy-3,4-dihydro-2H-benzo[e][1,2]oxaborinine-8-carboxylic acid]",< 10,< 1,< 1,< 1,< 1,,1 to 2
"O=C(NCCCN1CCN(C(=O)NC(C(=O)N[C@H]2Cc3ccc(F)c(C(=O)O)c3OB2O)c2cc(F)c(O)c(O)c2Cl)C1=O)c1ccc(O)cc1 (stereo partly drawn) [Example 280, (3R)-3-(2-(2-chloro-5-fluoro-3,4-dihydroxyphenyl)-2-(3-(3-(4-hydroxybenzamido)propyl)-2-oxoimidazolidine-1-carboxamido)acetamido)-7-fluoro-2-hydroxy-3,4-dihydro-2H-benzo[e][1,2]oxaborinine-8-carboxylic acid]",< 10,< 1,< 1,< 1,2 to 4,,16 to 32
"O=C(NCCCN1CCN(C(=O)NC(C(=O)N[C@H]2Cc3ccc(F)c(C(=O)O)c3OB2O)c2cc(F)c(O)c(O)c2Cl)C1=O)c1cccnc1 (stereo partly drawn) [Example 281, (3R)-3-(2-(2-chloro-5-fluoro-3,4-dihydroxyphenyl)-2-(3-(3-(nicotinamido)propyl)-2-oxoimidazolidine-1-carboxamido)acetamido)-7-fluoro-2-hydroxy-3,4-dihydro-2H-benzo[e][1,2]oxaborinine-8-carboxylic acid]",< 10,< 1,< 1,< 1,< 1,,16 to 32
"O=C(NCCCN1CCN(C(=O)N[C@H](C(=O)N[C@H]2Cc3ccc(F)c(C(=O)O)c3OB2O)c2cc(F)c(O)c(O)c2Cl)C1=O)Nc1ccc(O)cc1 [Example 283, (R)-3-((S)-2-(2-chloro-5-fluoro-3,4-dihydroxyphenyl)-2-(3-(3-(3-(4-hydroxyphenyl)ureido)propyl)-2-oxoimidazolidine-1-carboxamido)acetamido)-7-fluoro-2-hydroxy-3,4-dihydro-2H-benzo[e][1,2]oxaborinine-8-carboxylic acid]",50 to 250,> 128,> 128,2 to 4,> 128,,> 64
"O=C(NCCCN1CCN(C(=O)N[C@@H](C(=O)N[C@H]2Cc3ccc(F)c(C(=O)O)c3OB2O)c2cc(F)c(O)c(O)c2Cl)C1=O)Nc1ccc(O)cc1 [Example 284, (R)-3-((R)-2-(2-chloro-5-fluoro-3,4-dihydroxyphenyl)-2-(3-(3-(3-(4-hydroxyphenyl)ureido)propyl)-2-oxoimidazolidine-1-carboxamido)acetamido)-7-fluoro-2-hydroxy-3,4-dihydro-2H-benzo[e][1,2]oxaborinine-8-carboxylic acid]",< 10,< 1,< 1,< 1,< 1,,4 to 8
"O=C(NCCCN1CCN(C(=O)NC(C(=O)N[C@H]2Cc3ccc(F)c(C(=O)O)c3OB2O)c2cc(F)c(O)c(O)c2Cl)C1=O)Nc1ccncc1 (stereo partly drawn) [Example 285, (3R)-3-(2-(2-chloro-5-fluoro-3,4-dihydroxyphenyl)-2-(2-oxo-3-(3-(3-(pyridin-4-yl)ureido)propyl)imidazolidine-1-carboxamido)acetamido)-7-fluoro-2-hydroxy-3,4-dihydro-2H-benzo[e][1,2]oxaborinine-8-carboxylic acid]",< 10,< 1,< 1,< 1,2 to 4,,> 64
"O=C(NCCS(=O)(=O)N1CCN(C(=O)N[C@H](C(=O)N[C@H]2Cc3ccc(F)c(C(=O)O)c3OB2O)c2cc(F)c(O)c(O)c2Cl)C1=O)c1ccc(O)cc1 [Example 286, (R)-3-((S)-2-(2-chloro-5-fluoro-3,4-dihydroxyphenyl)-2-(3-((2-(4-hydroxybenzamido)ethyl)sulfonyl)-2-oxoimidazolidine-1-carboxamido)acetamido)-7-fluoro-2-hydroxy-3,4-dihydro-2H-benzo[e][1,2]oxaborinine-8-carboxylic acid]",50 to 250,> 128,> 128,8 to 16,> 128,,> 64
"O=C(NCCS(=O)(=O)N1CCN(C(=O)N[C@@H](C(=O)N[C@H]2Cc3ccc(F)c(C(=O)O)c3OB2O)c2cc(F)c(O)c(O)c2Cl)C1=O)c1ccc(O)cc1 [Example 287, (R)-3-((R)-2-(2-chloro-5-fluoro-3,4-dihydroxyphenyl)-2-(3-((2-(4-hydroxybenzamido)ethyl)sulfonyl)-2-oxoimidazolidine-1-carboxamido)acetamido)-7-fluoro-2-hydroxy-3,4-dihydro-2H-benzo[e][1,2]oxaborinine-8-carboxylic acid]",< 10,< 1,< 1,< 1,< 1,,4 to 8
"O=C(NCCS(=O)(=O)N1CCN(C(=O)NC(C(=O)N[C@H]2Cc3ccc(F)c(C(=O)O)c3OB2O)c2cc(F)c(O)c(O)c2Cl)C1=O)c1ccncc1 (stereo partly drawn) [Example 288, (3R)-3-(2-(2-chloro-5-fluoro-3,4-dihydroxyphenyl)-2-(3-((2-(isonicotinamido)ethyl)sulfonyl)-2-oxoimidazolidine-1-carboxamido)acetamido)-7-fluoro-2-hydroxy-3,4-dihydro-2H-benzo[e][1,2]oxaborinine-8-carboxylic acid]",< 10,< 1,< 1,< 1,2 to 4,,4 to 8

# From patent US20240270762A1, “PENICILLIN-BINDING PROTEIN INHIBITORS” (priority 2021, published 2024)
